From ChEMBL document CHEMBL1133205, “Synthesis and biological properties of new glycosidic cationic lipids for DNA delivery” (2000)
Activity calls are given as the source filed them. The rule behind the calls is not given here.

Columns and labels:
HeLa [1] = assay: Transfection efficiency of compound in delivering a plasmid bearing the sequence of luciferase gene under the dependence of human cytomegalo virus promoter into HeLa cells was evaluated; Inactive; format: functional, cell-based
HeLa [2] = assay: Transfection efficiency of compound in delivering a plasmid bearing the sequence of luciferase gene as ratio of nM of vector/ug of DNA in HeLa cells; format: functional, Homo sapiens
HeLa [3] = assay: Transfection efficiency of compound in delivering a plasmid bearing the sequence of luciferase gene under the dependence of human cytomegalo virus promoter into HeLa cells was evaluated; Active; format: functional, cell-based
NIH3T3 = assay: Transfection efficiency of compound in delivering a plasmid bearing the sequence of luciferase gene as ratio of nM of vector/ug of DNA in NIH3T3 cells; format: functional, Mus musculus

Compound	Activity (HeLa [1])	Activity (HeLa [2])	Activity (HeLa [3])	Activity (NIH3T3)
CCCCCCCCCCCCCCCCCCN(CCCCCCCCCCCCCCCCCC)C(=O)CCC(=O)OC[C@H]1O[C@H](OC)[C@H](OC(=O)CN)[C@@H](OC(=O)CN)[C@H]1OC(=O)CN	inactive	–	–	–
CCCCCCCCCCCCCCCCCCN(CCCCCCCCCCCCCCCCCC)C(=O)c1ccccc1C(=O)OC[C@H]1O[C@H](OC)[C@H](OC(=O)CN)[C@@H](OC(=O)CN)[C@H]1OC(=O)CN	inactive	–	–	–
CCCCCCCCCCCCCCCCCCN(CCCCCCCCCCCCCCCCCC)C(=O)c1ccccc1C(=O)OC[C@H]1O[C@H](OC)[C@H](OCCN)[C@@H](OCCN)[C@H]1OCCN	–	8 (nM of vector) (ug of DNA)-1	Active	12 (nM of vector) (ug of DNA)-1
CCCCCCCCCCCCCCCCCCN(CCCCCCCCCCCCCCCCCC)C(=O)CCC(=O)OC[C@H]1O[C@H](OC)[C@H](OCCN)[C@@H](OCCN)[C@H]1OCCN	–	8 (nM of vector) (ug of DNA)-1	Active	12 (nM of vector) (ug of DNA)-1
